In patent US20250188092A1, “RIFAMYCIN ANALOGS” (THE REGENTS OF THE UNIVERSITY OF MICHIGAN, priority 2021, published 2025):
≈ marks a conversion by molar mass, not a printed value.

How the values were obtained:
[1] = system: non-replicating cultures of M. tuberculosis H37Rv transformed with lux ABCDE; assay: microbe, parasite or virus in culture; type: cell-based, Mycobacterium tuberculosis; settings: for MIC90 / MIC: Mycobacterium tuberculosis, H37RV, ≥90% reduction in luminescence, read-out: MIC90 LORA; for MIC90 LORA/MABA: ratio of LORA MIC90 to MABA MIC90
[2] = system: M. tuberculosis transformed with luxABCDE; assay: microbe, parasite or virus in culture; type: cell-based, Mycobacterium tuberculosis; settings: for MBC: Mycobacterium tuberculosis, 168 h, ≥99% reduction in luminescence, read-out: MBC99 Day 7 (Lux Assay) MBC

Row | Compound | MIC90 LORA Rel to RMP [1] | MIC90 [1] | MIC90 LORA/MABA [1] | MBC [2] | MBC99 Day 7 (Lux Assay) MBC Rel to RMP [2] | MIC [1]
1 | CO[C@H]1/C=C/O[C@@]2(C)Oc3c(C)c(O)c4c(=O)c(c5oc6cc(N7CCC(CC(=O)O)CC7)cc(C)c6nc-5c4c3C2=O)NC(=O)/C(C)=C\C=C\[C@H](C)[C@H](O)[C@@H](C)[C@@H](O)[C@@H](C)[C@H](OC(C)=O)[C@@H]1C [Compound 29g, 2-{4-[(7S,9E,11S,12R,13S,14R,15R,16R,17S,18S,19E,21Z)-13-(acetyloxy)-2,15,17-trihydroxy-11-methoxy-3,7,12,14,16,18,22,32-octamethyl-6,23,37-trioxo-8,27,38-trioxa-24,34-diazahexacyclo[23.11.1.1^4,7.0^5,36.0^26,35.0^28,33]octatriaconta-1,3,5(36)9,19,21,25,28,30,32,34-undecaen-30-yl]piperidin-4-yl}acetic acid] | 10 | 0.28 µM (≈ 0.263 µg/mL) | 5.4 | > 0.1 µM | – | –
2 | CO[C@H]1/C=C/O[C@@]2(C)Oc3c(C)c(O)c4c(=O)c(c5oc6cc(N7CCN(CCCCCCO[C@@H]8COc9nc([N+](=O)[O-])cn9C8)CC7)cc(C)c6nc-5c4c3C2=O)NC(=O)/C(C)=C\C=C\[C@H](C)[C@H](O)[C@@H](C)[C@@H](O)[C@@H](C)[C@H](OC(C)=O)[C@@H]1C [Compound 29e, (7S,9E,11S,12R,13S,14R,15R,16R,17S,18S,19E,21Z)-2,15,17-Trihydroxy-11-methoxy-3,7,12,14,16,18,22,32-octamethyl-30-[4-(6-{[(6S)-2-nitro-5H,6H,7H-imidazo[2,1-b][1,3]oxazin-6-yl]oxy}hexyl)piperazin-1-yl]-6,23,37-trioxo-8,27,38-trioxa-24,34-diazahexacyclo[23.11.1.1^4,7.0^5,36.0^26,35.0^28,33]octatriaconta-1(36)2,4,9,19,21,25,28,30,32,34-undecaen-13-yl acetate] | 0.03 | 0.008 µM | 4.0 | 0.05 µM | 0.11 | –
3 | CCC(=O)N1CCN(c2cc(OCc3ccc(CN4CCOCC4)cc3)c3nc4c5c6c7c(C)c(O)c5c(=O)c(c-4oc3c2)NC(=O)/C(C)=C\C=C\[C@H](C)[C@H](O)[C@@H](C)[C@@H](O)[C@@H](C)[C@H](OC(C)=O)[C@H](C)[C@@H](OC)/C=C/O[C@@](C)(O7)C6=O)CC1 [Compound 17g, (7S,9E,11S,12R,13S,14R,15R,16R,17S,18S,19E,21Z)-2,15,17-Trihydroxy-11-methoxy-3,7,12,14,16,18,22-heptamethyl-32-({4-[(morpholin-4-yl)methyl]phenyl}methoxy)-6,23,37-trioxo-30-(4-propanoylpiperazin-1-yl)-8,27,38-trioxa-24,34-diazahexacyclo-[23.11.1.1^4,7.0^5,36.0^26,35.0^28,33]octatriaconta-1(36)2,4,9,19,21,25,28,30,32,34-undecaen-13-yl acetate] | 0.3 | 0.065 µM | 5.4 | > 0.1 µM | – | –
4 | CO[C@H]1/C=C/O[C@@]2(C)Oc3c(C)c(O)c4c(=O)c(c5oc6cc(N7CCC(C(=O)O)CC7)cc(C)c6nc-5c4c3C2=O)NC(=O)/C(C)=C\C=C\[C@H](C)[C@H](O)[C@@H](C)[C@@H](O)[C@@H](C)[C@H](OC(C)=O)[C@@H]1C [Compound 29f, 1-[(7S,9E,11S,12R,13S,14R,15R,16R,17S,18S,19E,21Z)-13-(acetyloxy)-2,15,17-trihydroxy-11-methoxy-3,7,12,14,16,18,22,32-octamethyl-6,23,37-trioxo-8,27,38-trioxa-24,34-diazahexacyclo-[23.11.1.1^4,7.0^5,36.0^26,35.0^28,33]octatriaconta-1,3,5(36)9,19,21,25,28,30,32,34-undecaen-30-yl]piperidine-4-carboxylic acid] | 40 | 1.07 µM (≈ 0.987 µg/mL) | 4.5 | > 0.1 µM | – | –
5 | CO[C@H]1/C=C/O[C@@]2(C)Oc3c(C)c(O)c4c(=O)c(c5oc6cc(N7CCN(C(=O)C(C)(C)C)CC7)cc(OCc7ccc(CN8CCOCC8)cc7)c6nc-5c4c3C2=O)NC(=O)/C(C)=C\C=C\[C@H](C)[C@H](O)[C@@H](C)[C@@H](O)[C@@H](C)[C@H](OC(C)=O)[C@@H]1C [Compound 17f, (7S,9E,11S,12R,13S,14R,15R,16R,17S,18S,19E,21Z)-30-[4-(2,2-Dimethylpropanoyl)-piperazin-1-yl]-2,15,17-trihydroxy-11-methoxy-3,7,12,14,16,18,22-heptamethyl-32-({4-[(morpholin-4-yl)methyl]phenyl}methoxy)-6,23,37-trioxo-8,27,38-trioxa-24,34-diazahexacyclo[23.11.1.1^4,7.0^5,36.0^26,35.0^28,33]octatriaconta-1(36)2,4,9,19,21,25,28,30,32,34-undecaen-13-yl acetate] | 1.8 | – | 14 | > 0.1 µM | – | 0.369 µM
6 | CO[C@H]1/C=C/O[C@@]2(C)Oc3c(C)c(O)c4c(=O)c(c5oc6cc(N7CCN(C(=O)OC(C)(C)C)CC7)cc(C)c6nc-5c4c3C2=O)NC(=O)/C(C)=C\C=C\[C@H](C)[C@H](O)[C@@H](C)[C@@H](O)[C@@H](C)[C@H](OC(C)=O)[C@@H]1C [Compound 26i, tert-Butyl 4-[(7S,9E,11S,12R,13S,14R,15R,16R,17S,18S,19E,21Z)-13-(acetyloxy)-2,15,17-trihydroxy-11-methoxy-3,7,12,14,16,18,22,32-octamethyl-6,23,37-trioxo-8,27,38-trioxa-24,34-diazahexacyclo[23.11.1.1^4,7.0^5,36.0^26,35.0^28,33]octatriaconta-1(36)2,4,9,19,21,25,28,30,32,34-undecaen-30-yl]piperazine-1-carboxylate] | 0.05 | 0.0093 µM (≈ 0.00914 µg/mL) | 2.0 | 0.047 µM (≈ 0.0462 µg/mL) | 0.10 | –
7 | CO[C@H]1/C=C/O[C@@]2(C)Oc3c(C)c(O)c4c(=O)c(c5oc6cccc(OCc7cccc(CN8CCN(C(=O)CN9CCOCC9)CC8)c7)c6nc-5c4c3C2=O)NC(=O)/C(C)=C\C=C\[C@H](C)[C@H](O)[C@@H](C)[C@@H](O)[C@@H](C)[C@H](OC(C)=O)[C@@H]1C [Compound 11f, (7S,9E,11S,12R,13S,14R,15R,16R,17S,1S,19E,21Z)-2,15,17-Trihydroxy-11-methoxy-3,7,12,14,16,18,22-heptamethyl-32-{[3-({4-[2-(morpholin-4-yl)acetyl]piperazin-1-yl}methyl)phenyl]methoxy}-6,23,37-trioxo-8,27,38-trioxa-24,34-diazahexacyclo[23.11.1.1^4,7.0^5,36.0^26,35.0^28,33]octatriaconta-1(36)2,4,9,19,21,25,28,30,32,34-undecaen-13-yl acetate] | 0.39 | 0.37 µM | 15 | 0.084 µM | 0.11 | –
8 | CO[C@H]1/C=C/O[C@@]2(C)Oc3c(C)c(O)c4c(=O)c(c5oc6cc(N7CCN(CC(C)C)CC7)cc(OCc7cccc(CN8CCN(C(=O)Cn9ccnc9)CC8)c7)c6nc-5c4c3C2=O)NC(=O)/C(C)=C\C=C\[C@H](C)[C@H](O)[C@@H](C)[C@@H](O)[C@@H](C)[C@H](OC(C)=O)[C@@H]1C [Compound 12c, (7S,9E,11S,12R,13S,14R,15R,16R,17S,18S,19E,21Z)-2,15,17-Trihydroxy-32-{[3-({4-[2-(1H-imidazol-1-yl)acetyl]piperazin-1-yl}methyl)phenyl]methoxy}-11-methoxy-3,7,12,14,16,18,22-heptamethyl-30-[4-(2-methylpropyl)piperazin-1-yl]-6,23,37-trioxo-8,27,38-trioxa-24,34-diazahexacyclo[23.11.1.1^4,7.0^5,36.0^26,35.0^28,33]octatriaconta-1(36)2,4,9,19,21,25,28,30,32,34-undecaen-13-yl acetate] | 0.11 | – | – | 0.037 µM | 0.08 | < 0.016 µM
9 | CO[C@H]1/C=C/O[C@@]2(C)Oc3c(C)c(O)c4c(=O)c(c5oc6cc(N7CCN(C(=O)c8ccc9occc9c8)CC7)cc(OCc7ccc(CN8CCOCC8)cc7)c6nc-5c4c3C2=O)NC(=O)/C(C)=C\C=C\[C@H](C)[C@H](O)[C@@H](C)[C@@H](O)[C@@H](C)[C@H](OC(C)=O)[C@@H]1C [Compound 17s, (7S,9E,11S,12R,13S,14R,15R,16R,17S,18S,19E,21Z)-30-{4-[(1-benzofuran-5-yl)carbonyl]piperazin-1-yl}-2,15,17-trihydroxy-11-methoxy-3,7,12,14,16,18,22-heptamethyl-32-{[4-(morpholin-4-ylmethyl)phenyl]methoxy}-6,23,37-trioxo-8,27,38-trioxa-24,34-diazahexacyclo[23.11.1.1^4,7.0^5,36.0^26,35.0^28,33]octatriaconta-1,3,5(36)9,19,21,25,28,30,32,34-undecaen-13-yl acetate] | 0.60 | 0.03 µM | 1.7 | 0.084 µM | 0.19 | –
10 | CO[C@H]1/C=C/O[C@@]2(C)Oc3c(C)c(O)c4c(=O)c(c5oc6cc(N7CCN(C(=O)c8ccc9occc9c8)CC7)cc(C)c6nc-5c4c3C2=O)NC(=O)/C(C)=C\C=C\[C@H](C)[C@H](O)[C@@H](C)[C@@H](O)[C@@H](C)[C@H](OC(C)=O)[C@@H]1C [Compound 29c, (7S,9E,11S,12R,13S,14R,15R,16R,17S,18S,19E,21Z)-30-[4-(1-Benzofuran-5-carbonyl)piperazin-1-yl]-2,15,17-trihydroxy-11-methoxy-3,7,12,14,16,18,22,32-octamethyl-6,23,37-trioxo-8,27,38-trioxa-24,34-diazahexacyclo[23.11.1.1^4,7.0^5,36.0^26,35.0^28,33]octatriaconta-(36)2,4,9,19,21,25,28,30,32,34-undecaen-13-yl acetate] | 0.05 | 0.0096 µM | 2.0 | 0.048 µM | 0.10 | –
